Where “and” joins values, the source holds several entries; their conditions need not be identical. Equal values may be shown once.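 Briefly, cells in 96-well plates were exposed to five compound concentrations for 48 h, and endpoints were estimated by linear interpolation. The concentration for 50% growth inhibition is given as GI50. TGI denotes the concentration required for complete inhibition of growth.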

Common to all, as to assay: NCI tumour cell line growth inhibition, 48 h
Test [1] has as its system ACHN renal.
The test system of test [2] is DU-145 prostate.
The subject of test [3] is SW-620 colon.
The test system of test [4] is HOP-62 NSCLC.
For test [5], the system named is TK-10 renal.
For test [6], the system named is T-47D breast.
In test [7] the test system is NCI-H226 lung.
Test [8] concerns KM12 colon.
Test [9] relates to NCI/ADR-RES ovarian.
In test [10] the test system is OVCAR-3 ovarian.

Regarding `CCc1ccc([OH2+])c(C(=O)[O-])c1.CCc1ccc([OH2+])c(C(=O)[O-])c1.CCc1ccc([OH2+])c(C(=O)[O-])c1.CCc1ccc([OH2+])c(C(=O)[O-])c1.[Cu+2].[Cu+2]`, the GI50 in test [1] is > 100 µM; in test [2], 70.1 µM; in test [3], > 100 µM; in test [4] it was > 100 µM; in test [5], > 85.8 µM; in [6], > 100 µM. The GI50 in [7] was > 50.2 µM; in [8] it was 53.6 µM; in [9], 17.3 µM; in [10], 36.5 µM. The TGI in test [1], in test [2], in [3], in test [4], in test [5] and in [6] was > 100 µM each time. Further, the TGI in test [7], in [8], in test [9] and in test [10] was > 100 µM each time.

For `CC/C(=C/c1ccc(OC)cc1)[N+](=O)[O-]`, the GI50 is 1.71 µM in test [1]; 2.17 µM in test [2]; 1.93 µM in [3]; 2.23 µM in [4]; 1.75 µM in test [5]; 1.82 µM in test [6]. In addition, the GI50 was 2.07 µM in [7], 2.24 µM in [8], 3.13 µM in [9] and 1.86 µM in test [10]. Also, the TGI in test [1] was 3.21 µM; in [2], 5.07 µM; in test [3], 3.85 µM; in [4], 5.89 µM; in [5], 3.28 µM; in test [6], 5.95 µM. For the same compound, the TGI was 3.86 µM in [7], 5.47 µM in test [8], 11.5 µM in [9] and 3.35 µM in test [10].

For `O=C1c2ccccc2-c2cn(Cc3ccccc3)c3cccc(c23)C1c1cccnc1` (stereo not drawn), the GI50 in [1] was 12.1 µM; in test [2] it was 4.27 µM; in [3], 1.88 µM; in test [4], 3.44 µM; in [5] it was 20.8 µM; in [6] it was 2.32 µM. Further, the GI50 in test [7] was > 50 µM; in [8], 2.27 µM; in test [9] it was 1.97 µM; in test [10], 1.8 µM. Further, the TGI was > 50 µM in [1]; 40.5 µM in [2]; > 50 µM in test [3]; > 50 µM in [4]; > 50 µM in [5]; > 50 µM in test [6]. The TGI in test [7] is > 50 µM; in test [8], > 50 µM; in [9], > 50 µM; in test [10], 4.95 µM.

For the compound `COc1cc(/C=N\Nc2ccccc2)ccc1OC(=O)c1ccccc1`, the GI50 in test [1] was 0.675 µM; in test [2] it was 39.4 µM; in [3] it was 0.736 µM; in test [4] it was 8.38 µM; in [5], 16.5 µM; in test [6], 0.268 µM. In addition, the GI50 in test [7] is 10.2 µM; in [8] it was 0.778 µM; in test [9] it was 0.903 µM; in [10], 4.19 µM. Also, the TGI in test [1] is > 100 µM; in test [2], > 100 µM; in [3], 19.9 µM; in test [4] it was > 64.7 µM; in [5], 68.3 µM; in [6] it was > 85.9 µM. In addition, the TGI in test [7] was > 77.6 µM; in [8], > 68.8 µM; in test [9], > 100 µM; in [10], > 68.9 µM.

With `COc1cc2c(cc1O)CCN[C@@]21CS[C@H]2c3c(OC(C)=O)c(C)c4c(c3C(COC1=O)N1C2C2NC(Cc3cc(C)c(OC)c(O)c32)[C@@H]1O)OCO4` (stereo partly drawn), the TGI was 12.9 µM and 2e-06 µg/mL and 0.0045 µg/mL in test [1]; 11 µM in test [2]; 7.33 µM and 4.98 µg/mL in [3]; < 10 nM and 3.8e-07 µg/mL and 0.0045 µg/mL in [4]; 13.1 µM and 6.24 µg/mL in test [5]; 0.0453 µM in test [6]. Moreover, the TGI in [7] stood at 0.000273 ng/mL; in test [8], 11.3 µM; in test [9] it was 0.0369 µM; in [10] it was 0.00531 ng/mL. The GI50 in [3] is 4.5 ng/mL; in [5], 0.00184 ng/mL and 4.5 ng/mL; in [10], 0.000341 ng/mL.

Consider `O=C(Nc1c[nH]c(=O)[nH]c1=O)Oc1ccccc1`, for which the TGI in test [1], in test [2], in test [3], in [4], in test [5] and in test [6] was > 100 µM each time. Besides, the TGI in [7], in [8], in test [9] and in test [10] was > 100 µM throughout.

Turning to `Oc1ccccc1/C=N\NC(=S)Nc1ccc(F)cc1`, the GI50 in test [1] was 0.674 µM; in [2], 1.97 µM; in test [3], 1.17 µM; in [4], 0.832 µM; in [5] it was 6.83 µM; in test [6], 3.34 µM. In addition, the GI50 is 2.76 µM in test [7], 0.799 µM in test [8], 0.443 µM in test [9] and 0.41 µM in [10]. Further, the TGI in test [1] was > 100 µM; in [2] it was > 100 µM; in test [3], > 100 µM; in test [4] it was > 65 µM; in [5] it was > 100 µM; in [6], 60.1 µM. The TGI in test [7] was > 32.5 µM; in test [8] it was 45 µM; in test [9], > 37.8 µM; in test [10] it was > 69 µM.

Regarding `COc1oc(C2C/C(=C/C(C)=C/C(C)=C/C(C)=C/c3ccc([N+](=O)[O-])cc3)CO2)c(C)c(=O)c1C` (stereo not drawn), the TGI in [1] is 6.58 µM; in [2], > 47.3 µM; in test [3], > 100 µM; in test [4] it was > 100 µM; in [5] it was > 45.6 µM; in [6], 6.81 µM. In addition, the TGI in test [7] was > 54.3 µM; in [8] it was > 48.2 µM; in test [9], > 49.6 µM; in test [10] it was 54.9 µM.

Source of the values: PubChem BioAssay (NCI).
